Data reported in patent US20140045758A1, “Methods for Treating and Preventing Cardiac Dysfunction in Septic Shock” (THE TRUSTEES OF COLUMBIA UNIVERSITY IN THE CITY OF NEW YORK, priority 2011, published 2014).
“And” between values parts separate entries of the source, which are not always exact repeats. Identical values can stand only once. “Also recorded” adds a separate entry of the source.

Key:
C57BL/6 mice [1] = experiment: Assessment of survival after lethal dose of LPS; format: in vivo
Excerpt: Control animals received saline and DMSO instead of LPS and rosiglitazone, respectively.

[2] = cited from earlier work; for hepatic damage: long term use
C57BL/6 mice [3] = experiment: LPS-mediated sepsis: cardiac function by 2D echocardiography (fractional shortening); format: in vivo
Protocol: (§1) LPS (5 mg/kg) (Sigma) was administered intraperitoneally (i.p.) in mice. Control mice were treated with equal volume of saline. Cardiac function was assessed by 2D echocardiography 5-6 hours post-LPS administration and mice were sacrificed 2-3 hours later (7-9 hours post-LPS injection).
(§2) Two-dimensional echocardiography was performed on conscious 10 to 12 week-old male and female (n=5-8 per group) mice (Sonos5500 system; Philips Medical Systems).^129Echocardiographic images were recorded in a digital format. Images were then analyzed off-line by a single observer blinded to the murine genotype.^130

patients = conditions: human, in vivo, 3 mg/kg/day; cited from earlier work
hearts of C57BL/6 mice [4] = experiment: Cardiac mRNA levels by quantitative real-time PCR after LPS; format: in vivo
Protocol: as §1
(§3) Total RNA was purified from cells or hearts using the TRIzol reagent according to the instructions of themanufacturer (Invitrogen). cDNA was synthesized using the SuperScript III First-Strand Synthesis SuperMix (Invitrogen). cDNA was analyzed with quantitative real-time PCR that was performed with SYBR Green PCRCore Reagents (Stratagene). Incorporation of the SYBRgreen dye into the PCR products was monitored in real time withan Mx3000 sequence detection system (Stratagene). Samples were normalized against β-actin.

[5] = test system: cardiac muscle of C57BL/6 mice; experiment: FA oxidation ([3H]palmitate oxidation) in heart pieces; format: in vivo; conditions: LPS 5 mg/kg, 6-8 h
Protocol: as §1

hearts of C57BL/6 mice [6] = experiment: Cardiac ATP measurement; format: in vivo; conditions: LPS 5 mg/kg, 6-8 h
Protocol: as §1

hearts of C57BL/6 mice [7] = experiment: Western blot of pJNK, p-cJun and pAMPK in hearts; format: in vivo; conditions: LPS 5 mg/kg; controls (label LPS) or animals given rosiglitazone 35 mg/kg (label rosiglitazone)
Protocol: as §1
(§4) Isolated heart tissues or cells were homogenized in PBS containing protease inhibitors and phosphatase inhibitors (Roche, Indianapolis, Ind.). Membrane and cytosolic fractions were separated by ultracentrifugation.20 μg from each fraction was applied to SDS-PAGE and transferred onto nitrocellulose membranes. Antibodies were obtained from Santa Cruz (JNK) and Cell Signaling (phospho-JNK, phospho-AMPK^Thr 172 and total AMPK).

αMHC-PPARγ mice = experiment: LPS in αMHC-PPARγ mice: 2D echocardiography (fractional shortening); format: in vivo; conditions: LPS-treated αMHC-PPARγ mice
Protocol: (§5) All procedures involving animals were approved by the Institutional Animal Care and Use Committee at Columbia University. Mice were maintained under appropriate barrier conditions in a 12 hr light-dark cycle and received food and water ad libitum. The animals that were used for this study were C57BL/6 mice and mice expressing specifically in cardiomyocytes peroxisome proliferator activating receptor-γ (αMHC-PPARγ) that are also on the C57BL/6 background. All studies were performed on the different genotypes with littermates as controls. Hearts from these mice were harvested, flash frozen and stored at −80° C. until further use. All analyses involving animals were performed with at least 5 mice per experimental group.
as §1, §2

[8] = test system: hearts of αMHC-PPARγ mice; experiment: Cardiac mRNA levels in LPS-treated αMHC-PPARγ mice; format: in vivo
Protocol: as §5, §1, §3

[9] = test system: cardiac muscle of αMHC-PPARγ mice; experiment: [3H]palmitic acid oxidation in cardiac muscle of αMHC-PPARγ mice; format: in vivo; conditions: LPS-treated vs saline-treated αMHC-PPARγ mice
Protocol: as §1
FA oxidation was measured in pieces of hearts isolated from 10-12 week old mice. The heart pieces were incubated at 37° C. for 2 h in modified Krebs-Ringerbuffer (MKR: 115 mM NaCl, 2.6 mM KCl, 1.2 mM KH2PO4, 10 mM NaHCO3,10 mM HEPES, pH 7.4) that contained 2% BSA, […] palmitate and 10 μCi/ml 9,10(n)-[^3H]-palmitate and was gassed with 95% O2 and 5% CO2. Water was then extracted with chloroform:methanol (2:1) extraction. Palmitate oxidation was determined by measuring the amount of ^3H2O in the aqueous phase.

[10] = test system: hearts of αMHC-PPARγ mice; experiment: Cardiac ATP levels in αMHC-PPARγ mice; format: in vivo; conditions: LPS-treated αMHC-PPARγ mice
Protocol: as §1
Cardiac pieces of 10 mg were used to determine ATP levels. Heart pieces were dissolved in ice-cold 0.1% trichloro-acetic acid and centrifuged. Supernatant was resuspended in 50 mM Tris-acetate containing 2 mM EDTA, pH 7.8 and a portion was used to measure ATP. The measurement was performed with the ATP determination kit (Invitrogen) according to the instructions of the manufacturer.

[11] = test system: hearts of αMHC-PPARγ mice; experiment: Western blot of pAMPK and pJNK in hearts of αMHC-PPARγ mice; format: in vivo
Protocol: as §1, §4

AC16 cells = experiment: PPARα gene expression in LPS-treated human cardiomyocyte cell line; format: cell-based; conditions: LPS treatment alone
Excerpt: A human ventricular cardiomyocyte-derived cell line, designated AC-16, was kindly provided by M. M. Davidson.^126 Cells were maintained in Dulbecco's Modified Eagle Medium: Nutrient Mixture F-12 (Ham) (DMEM:F12) (Invitrogen) supplemented with fetal bovine serum (10%) and a mixture of penicillin and streptomycin (1%). Prior to infection with recombinant adenoviruses the medium was changed to 2% heat inactivated horse serum and the cells were infected in at least duplicates with control adenovirus that expresses the Green Fluorescent Protein (Ad-GFP) or the adenovirus expressing the constitutively active form of JNK2 (Ad-JNK2α2) at a multiplicity of infection (MOI) of 10. […] To assess gene expression 48 hours post incubation, cell lysates were collected and analyzed for mRNA and protein expression.
Total RNA was purified from cells or hearts using the TRIzol reagent according to the instructions of themanufacturer (Invitrogen). cDNA was synthesized using the SuperScript III First-Strand Synthesis SuperMix (Invitrogen). cDNA was analyzed with quantitative real-time PCR that was performed with SYBR Green PCRCore Reagents (Stratagene). Incorporation of the SYBRgreen dye into the PCR products was monitored in real time withan Mx3000 sequence detection system (Stratagene). […]

[12] = test system: cardiac tissue from C57BL/6 mice; experiment: Electron microscopy of cardiac mitochondria; format: in vivo; conditions: LPS vs saline
Excerpt: Left ventricles from 3-month-old mice were fixed with 2.5% glutaraldehyde in 0.1 M Sorensen's buffer (0.2 M monobasic phosphate/0.2 M dibasic phosphate, 1:4 vol/vol; pH 7.2), postfixed in osmium tetroxide, and embedded in EPON 812 (Electron Microscopy Sciences). Ultrathin sections were stained with uranyl acetate and lead citrate and examined under a JEM-1200ExII electron microscope (JEOL).

[13] = test system: cardiac RNA from LPS-treated mice; experiment: MiR array analysis of cardiac RNA; format: in vivo
Excerpt: The next experiment assessed whether the cardiac miR (microRNA) profiles of LPS-treated mice resemble the respective profiles in heart failure. (FIG. 5(A)-(C)).

C57BL6 mice = experiment: Plasma IL-6 protein levels after LPS; format: in vivo; conditions: LPS 5 mg/kg, 6-8 h
Protocol: An animal model of cardiac septic shock was reproduced by treating 10 week old C57BL6 mice with LPS (5 mg/kg of body) for 6-8 h.

hearts of C57BL/6 mice [14] = experiment: Cardiac mRNA levels by quantitative real-time PCR after LPS; format: in vivo; conditions: LPS 5 mg/kg, 6-8 h
[15] = LPS 15 mg/kg, + DMSO (15 mice, F) or + rosiglitazone 33 mg/kg/day (17 mice, M)
[16] = Saline (no LPS) + rosiglitazone 33 mg/kg/day, 8 mice, M

CN(CCOc1ccc(CC2SC(=O)NC2=O)cc1)c1ccccn1 (stereo not shown) [rosiglitazone]
Survivors 24 h (C57BL/6 mice [1]; [15]): 17 | Survivors 36 h (C57BL/6 mice [1]; [15]): 16 | Survivors 48 h (C57BL/6 mice [1]; [15]): 16 | Survivors 60 h (C57BL/6 mice [1]; [15]): 15 | Survivors 72 h (C57BL/6 mice [1]; [15]): 13 | Survivors 24 h (C57BL/6 mice [1]; [16]): 8 | Survivors 36 h (C57BL/6 mice [1]; [16]): 8 | Survivors 48 h (C57BL/6 mice [1]; [16]): 8 | Survivors 60 h (C57BL/6 mice [1]; [16]): 8 | Survivors 72 h (C57BL/6 mice [1]; [16]): 8 | hepatic damage [2]: cause hepatic damage with long term use

Cc1c(C)c2c(c(C)c1O)CCC(C)(COc1ccc(CC3SC(=O)NC3=O)cc1)O2 (stereo not shown) [troglitazone]
hepatic damage [2]: cause hepatic damage with long term use

Cc1cccc(Nc2cc(Cl)nc(SCC(=O)O)n2)c1C [WY-14643]
improved fractional shortening by (C57BL/6 mice [3]; LPS 5 mg/kg + WY-14643 30 mg/kg, trend, p=0.09): 25%

Oblimersen
adverse effects in patients (patients): no severe adverse effects

CCc1ccc(CCOc2ccc(CC3SC(=O)NC3=O)cc2)nc1 (stereo not shown) [Pioglitazone, pioglitazone]
deleterious effects on blood lipids ([2]; in vivo): fewer deleterious effects on blood lipids

lipopolysaccharide [LPS]
reduction in fractional shortening (C57BL/6 mice [3]; LPS 5 mg/kg alone vs saline, 2D-echocardiography): 50% | fractional shortening, effect of LPS (C57BL/6 mice [3]; LPS 5 mg/kg of body, 6-8 h, 10 week old mice): reduced fractional shortening | PDK4 mRNA increase (hearts of C57BL/6 mice [4]; LPS 5 mg/kg alone): 16 fold | cardiac AOX mRNA, increased by (hearts of C57BL/6 mice [4]; LPS 5 mg/kg alone): 42% | cardiac PPARα mRNA levels, reduced by (hearts of C57BL/6 mice [4]; LPS 5 mg/kg alone): 78% | cardiac perilipin 2 mRNA, increased by (hearts of C57BL/6 mice [4]; LPS 5 mg/kg alone): 3.3 | cardiac IL-1α mRNA increase (hearts of C57BL/6 mice [4]; LPS 5 mg/kg alone, qRT-PCR): 90 fold | cardiac IL-6 mRNA increase (hearts of C57BL/6 mice [4]; LPS 5 mg/kg alone, qRT-PCR): 1250 fold | cardiac TNFα mRNA increase (hearts of C57BL/6 mice [4]; LPS 5 mg/kg alone, qRT-PCR): 26 fold | cardiac PPARγ (mRNA) levels, increased by (hearts of C57BL/6 mice [4]; LPS alone, normal C57BL/6 mice): ~60% and 57% | gene expression levels of αMHC and βMHC (hearts of C57BL/6 mice [4]; LPS, hearts of C57BL/6 mice): reduces both αMHC and βMHC | switch from α-MHC isoform to β-MHC (cardiac mRNA) (hearts of C57BL/6 mice [4]; LPS-treated mice): did not indicate such change | cardiac PPARδ mRNA (hearts of C57BL/6 mice [4]; any of the treatment groups (rosiglitazone 35 mg/kg, LPS 5 mg/kg, both)): not modulated | FAO, reduced by [5]: 61% | cardiac ATP, reduced by (hearts of C57BL/6 mice [6]): 44% | phospho-AMPK in heart after LPS (hearts of C57BL/6 mice [7]): not stimulated; also recorded: reduced phospho-AMPK | phosphorylation/activation of JNK (and c-Jun) in heart after LPS (hearts of C57BL/6 mice [7]): induced phosphorylation of JNK; also recorded: activated | Survivors 24 h (C57BL/6 mice [1]; [15]): 14 | Survivors 36 h (C57BL/6 mice [1]; [15]): 14 | Survivors 48 h (C57BL/6 mice [1]; [15]): 10 | Survivors 60 h (C57BL/6 mice [1]; [15]): 5 | Survivors 72 h (C57BL/6 mice [1]; [15]): 2 | start of dying post-injection (C57BL/6 mice [1]; LPS alone 15 mg/kg i.p.): 36 h | fractional shortening / cardiac function (αMHC-PPARγ mice): remained normal; also recorded: preserved | UCP2 mRNA increase ([8]; LPS): 23.7 fold | UCP3 mRNA increase ([8]; LPS): 17.4 fold | PDK4 mRNA increase ([8]; LPS 5 mg/kg): 5.4 fold | cardiac CD36 gene expression, reduced by ([8]; LPS 5 mg/kg): 93% | cardiac IL-1α mRNA increase ([8]; LPS 5 mg/kg): 23.1 fold and 23 fold | cardiac IL-6 mRNA increase ([8]; LPS 5 mg/kg): 288 fold and 285 fold | cardiac PGC-1β gene expression, reduced by ([8]; LPS 5 mg/kg): 76% | cardiac TNFα mRNA increase ([8]; LPS 5 mg/kg): 12.5 fold | estrogen-related receptor (ERR)α mRNA ([8]; LPS 5 mg/kg): not modulated | perilipin 2 mRNA ([8]; LPS 5 mg/kg): not modulated | perilipin 5 mRNA, reduced by ([8]; LPS 5 mg/kg): 50% | AOX mRNA increase ([8]; LPS 5 mg/kg vs saline): 27.1 fold | Cpt1β mRNA increase ([8]; LPS 5 mg/kg vs saline): 14.3 fold | PGC-1α mRNA increase ([8]; LPS 5 mg/kg vs saline): 30.1 fold | PPARγ mRNA increase ([8]; LPS 5 mg/kg vs saline): 31.6 fold | PPARδ mRNA increase ([8]; LPS 5 mg/kg vs saline): 31.6 fold | cardiac PPARα mRNA reduction ([8]; LPS 5 mg/kg vs saline): 77% and 78% | levels of FAO, increase [9]: 2.6 fold | cardiac ATP content [10]: significantly increased | cardiac ATP levels, increase [10]: 2.2 fold | JNK activation ([11]; LPS 5 mg/kg, αMHC-PPARγ mice): activated JNK | phosphorylated AMPK levels ([11]; LPS-treated αMHC-PPARγ mice): reduced | PPARα expression in human cardiomyocyte cell line (AC16 cells): reduces PPARα expression | morphology and intracellular arrangement of mitochondria [12]: did not affect | miRs associated with heart failure (miR-1, -133, -208, -195, -24, -125b, -199a, 214) affected [13]: none | plasma IL-6 protein levels (C57BL6 mice): increased | cardiac gene expression of inflammation-associated genes (IL-1α, IL-6 and TNFα) (hearts of C57BL/6 mice [14]): increased | mRNA levels for cardiac PPARα, CD36, LpL, FATP, Cpt1β, PGC-1α and PGC-1β (hearts of C57BL/6 mice [14]): reduced
